Patent US20050063940A1, “Bioadhesive agent” (priority 2002, published 2005)

Assay: Cross-over study of drug A blood levels with 1% Softigen or 1% Labrasol formulation
Parameters: species or system rabbits
Conditions: rabbit, in vivo
Experimental: In a cross-over study, 4 rabbits received drug A in a formulation containing 1% Softigen® (Sasol GmbH, Germany) (n=4) and 1% Labrasol® (Gattefosse, France) (n=4) and were sampled for blood samples after 0, 2, 5, 10, 15, 30, 45 and 60 min.

tmax: 6 min
Substance: macrogol-6-glycerol-caprylocaprate [PEG6-CCG]
